Measurements: patent US9107415B2, “2-(substituted-phenyl)-cyclopentane-1,3-dione compounds, and derivatives thereof” (Syngenta Limited, priority 2011, dated 2015)

Legend:
Format in all cases: in vivo
Spring Wheat “Teal” = assay: Biological Example 4B post-emergence phytotoxicity on cereal crops; details: 14 DAA, technical compound in IF50 + Adigor, mean of two
Protocol: (§1) Seeds of a variety of test species are sown in standard soil in pots. After cultivation for 14 days under controlled conditions in a glasshouse (at 22/16°C., day/night; 16 hours light; 65% humidity), the plants are sprayed with an aqueous spray solution derived from the formulation of the technical active ingredient dissolved in acetone plus IF50 containing
(§2) 10.56 wt % Emulsogen™EL (castor oil ethoxylate, CAS Registry number 61791-12-6)
(§3) 42.22 wt % N-Methyl pyrrolidone
(§4) 42.22 wt % dipropylene glycol monoethyl ether
(§5) at a 1:20 ratio of (technical active ingredient:IF50). The adjuvant Adigor™(an adjuvant containing inter alia methylated rapeseed oil, e.g. available from Syngenta) is added to form a 0.5% v/v solution. The test plants are then grown on under controlled conditions in the glasshouse (at 22/16°C., day/night; 16 hours light; 65% humidity) and are watered twice daily. After 14 days the test is evaluated (100%=total damage to plant; 0%=no damage to plant).
(§6) Post-emergence herbicidal activity (phytotoxicity) data, on certain grassy monocotyledonous weeds and cereal crops in a glasshouse, are measured 14 days after application of the herbicide (14 DAA), for (a) a […] the same time as the herbicide, and (b) for a post-emergence application rate of 30 g/ha of the test herbicide with 50 g/ha of cloquintocet-mexyl safener applied at substantially the same time as the herbicide. Herbicidal activity (phytotoxicity) is evaluated visually, and an assessed percentage phytotoxicity score is given for each herbicidal application on each plant species (with 100%=total damage to plant; 0%=no damage to plant). Two repetitions are made for each experiment, and the mean herbicidal activity (phytotoxicity) data is reported.

[1] = tested on: Lolium multiflorum (LOLMU); assay: Biological Example 4B (not-previously-formulated compounds) post-emergence herbicidal activity on grassy weeds; details: 14 DAA, technical compound in IF50 + Adigor, mean of two
Protocol: as §1, §2, §3, §4, §5, §6
Test plants: Avena fatua (AVEFA), Lolium multiflorum (LOLMU), Setaria viridis (SETVI), Poa annua (POAAN), Alopecurus myosuroides (ALOMY). All five of these are grassy monocotyledonous weeds.

[2] = tested on: Spring Barley “Harrington”; assay: Biological Example 4B post-emergence phytotoxicity on cereal crops; details: 14 DAA, technical compound in IF50 + Adigor, mean of two
Protocol: as §1, §2, §3, §4, §5
Post-emergence herbicidal activity (phytotoxicity) data, on certain grassy monocotyledonous weeds and cereal crops in a glasshouse, are measured 14 days after application of the herbicide (14 DAA), for (a) a post-emergence application rate of 60 g/ha of the test herbicide with or without 50 g/ha of cloquintocet-mexyl safener applied at substantially the same time as the herbicide, and (b) for a post-emergence application rate of 30 g/ha of the test herbicide with 50 g/ha of cloquintocet-mexyl safener applied at substantially the same time as the herbicide. Herbicidal activity (phytotoxicity) is evaluated visually, and an assessed percentage phytotoxicity score is given for each herbicidal application on each plant species (with 100%=total damage to plant; 0%=no damage to plant). Two repetitions are made for each experiment, and the mean herbicidal activity (phytotoxicity) data is reported.

Avena fatua (AVEFA) = assay: Biological Example 1 glasshouse screen, post-emergence herbicidal activity; details: 312 h, application rate 250 g/ha, evaluated after 13 days, read-out: AVEFA percentage phytotoxicity
Outline: (§7)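 Pots in a glasshouse (24/16°C day/night, 14 h light, 65% humidity) were sprayed one day after sowing (pre-emergence) or after 8 days (post-emergence), using acetone/water (50:50) with 0.5% Tween 20. Phytotoxicity was scored visually as % damage (0-100) 13 days after application.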

Lolium perenne (LOLPE) = assay: as above; details: 312 h, application rate 250 g/ha, evaluated after 13 days, read-out: LOLPE percentage phytotoxicity
Outline: as §7

Winter Wheat “Hereward” = assay: Biological Example 4B post-emergence phytotoxicity on cereal crops; details: 14 DAA, technical compound in IF50 + Adigor, mean of two
Protocol: as §1, §2, §3, §4, §5
(§8) […] Herbicidal activity (phytotoxicity) is evaluated visually, and an assessed percentage phytotoxicity score is given for each herbicidal application on each plant species (with 100%=total damage to plant; 0%=no damage to plant). Two repetitions are made for each experiment, and the mean herbicidal activity (phytotoxicity) data is reported.

Winter Barley “Suzuka” = assay: as above; details: 14 DAA, technical compound in IF50 + Adigor, mean of two
Protocol: as §1, §2, §3, §4, §5, §8

[3] = tested on: Alopecurus myosuroides (ALOMY); assay: Biological Example 1 glasshouse screen, post-emergence herbicidal activity; details: 312 h, application rate 250 g/ha, evaluated after 13 days, read-out: ALOMY percentage phytotoxicity
Outline: (§9)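 Glasshouse, 24/16°C, 14 h light, 65% RH, watered twice daily. Spray: technical a.i., acetone/water 50:50, 0.5% Tween 20. Timing: day 1 pre-em, day 8 post-em. Score: visual % damage, day 13.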

[4] = tested on: Echinochloa crus-galli (ECHCG); assay: as above; details: 312 h, application rate 250 g/ha, evaluated after 13 days, read-out: ECHCG percentage phytotoxicity
Outline: as §9

[5] = tested on: Alopecurus myosuroides (ALOMY); assay: Biological Example 1 glasshouse screen, pre-emergence herbicidal activity; details: 312 h, application rate 250 g/ha, evaluated after 13 days, read-out: ALOMY percentage phytotoxicity
Outline: as §9

[6] = tested on: Echinochloa crus-galli (ECHCG); assay: as above; details: 312 h, application rate 250 g/ha, evaluated after 13 days, read-out: ECHCG percentage phytotoxicity
Outline: as §9

[7] = 30 g/ha, cloquintocet-mexyl 50 g/ha
[8] = 60 g/ha, cloquintocet-mexyl 0 g/ha
[9] = 60 g/ha, cloquintocet-mexyl 50 g/ha
[10] = 15 g/ha, cloquintocet-mexyl 50 g/ha

Structure (SMILES)	Spring Wheat “Teal” phytotoxicity (%) (Spring Wheat “Teal”; [7])	Spring Wheat “Teal” phytotoxicity (%) (Spring Wheat “Teal”; [8])	Spring Wheat “Teal” phytotoxicity (%) (Spring Wheat “Teal”; [9])	LOLMU % phytotoxicity [1, 7] [%]	LOLMU % phytotoxicity [1, 8] [%]	LOLMU % phytotoxicity [1, 9] [%]	Spring Barley “Harrington” phytotoxicity (%) [2, 7] [%]	Spring Barley “Harrington” phytotoxicity (%) [2, 8] [%]	Spring Barley “Harrington” phytotoxicity (%) [2, 9] [%]	pest or weed control at 250 g/ha (Avena fatua (AVEFA)) [%]	pest or weed control at 250 g/ha (Lolium perenne (LOLPE)) [%]	Winter Wheat “Hereward” phytotoxicity (%) (Winter Wheat “Hereward”; [7])	Winter Wheat “Hereward” phytotoxicity (%) (Winter Wheat “Hereward”; [8])	Winter Wheat “Hereward” phytotoxicity (%) (Winter Wheat “Hereward”; [9])	Winter Barley “Suzuka” phytotoxicity (%) (Winter Barley “Suzuka”; [7])	Winter Barley “Suzuka” phytotoxicity (%) (Winter Barley “Suzuka”; [8])	Winter Barley “Suzuka” phytotoxicity (%) (Winter Barley “Suzuka”; [9])	pest or weed control at 250 g/ha [3] [%]	pest or weed control at 250 g/ha [4] [%]	pest or weed control at 250 g/ha [5] [%]	also measured
CC#Cc1cc(C)c(C2=C(O)CC(Cc3ccc(C)cn3)C2=O)c(C)c1 (stereo not shown) [Compound A-8]	0	73	25	68	92	94	18	85	75	100	100	13	63	45	9	73	60	100	100	100	pest or weed control at 250 g/ha [6]: 100%
CC#Cc1cc(C)c(C2=C(O)CC(Cc3ccc(C#N)cn3)C2=O)c(C)c1 (stereo not shown) [Compound A-14]	13	83	65	88	100	97	70	95	95	90	100	30	80	78	45	97	93	100	100	90	pest or weed control at 250 g/ha [6]: 90%
CC#Cc1cc(C)c(C2C(=O)CC(Cc3ccn(C)n3)C2=O)c(C)c1 (stereo not shown) [Compound A-19]	73	90	83	100	100	100	38	98	94	100	100	65	89	75	55	97	95	100	100	100	Spring Wheat “Teal” phytotoxicity (%) (Spring Wheat “Teal”; [10]): 23%; LOLMU % phytotoxicity [1, 10]: 98%; Winter Wheat “Hereward” phytotoxicity (%) (Winter Wheat “Hereward”; [10]): 58%; Winter Barley “Suzuka” phytotoxicity (%) (Winter Barley “Suzuka”; [10]): 3%; pest or weed control at 250 g/ha [6]: 100%
CC#Cc1cc(C)c(C2=C(O)CC(Cc3ccc(F)cn3)C2=O)c(C)c1 (stereo not shown) [Compound A-11]	8	38	15	68	95	88	8	58	13	90	100	3	55	8	8	68	33	100	100	90	pest or weed control at 250 g/ha [6]: 100%
